Source: patent US20210380525A1, “COMPOSITIONS AND METHODS FOR THE TREATMENT OF PARKINSON'S DISEASE” (Cellix Bio Private Limited, priority 2018, published 2021)

Assays:
[1] = Pharmacokinetic study: plasma L-Dopa after single subcutaneous administration of CLX-SYN-G107B-C01; format: in vivo, Sprague-Dawley rats; details: lowest tested dose of 50 mg/kg s.c. compared to other doses, SD rats
Procedure: (§1) The objective of this study was to determine the pharmacokinetics of L-Dopa after a single subcutaneous administration of CLX-SYN-G107B-C01 at the doses of 50, 150 and 300 mg/Kg, in male Sprague-Dawley (SD) rats.
(§2) Three groups of 5-male rats in each (age 8-10 weeks; body weight range 198-226 g) were assigned to receive CLX-SYN-G107B-C01 at the doses of 50, 150 and 300 mg/kg, by subcutaneous route. CLX-SYN-G107B-C01 was formulated in Propylene glycol and PEG-300 for subcutaneous administration. The dose volume was 2 ml/kg.
The blood samples (0.2 mL/time point) from the animals were collected at 0 (pre-dose), 0.083, 0.25, 0.5, 1, 2, 4, 8, 10, 24, 48 and 72 h post dosing after subcutaneous administration. The plasma samples were analyzed for L-Dopa using a fit-for-purpose LC-MS/MS method.

[2] = Clinical signs of toxicity in the pharmacokinetic study; format: in vivo; details: single s.c. dose 50, 150 and 300 mg/Kg, male SD rats
Procedure: as §1, §2

CCCCCCC(=O)N[C@@H](Cc1ccc(O)c(O)c1)C(=O)OCC(COC(=O)CCCCCC)OC(=O)CCCCCC (stereo partly drawn) [CLX-SYN-G107B-C01, 3-(((S)-3-(3,4-dihydroxyphenyl)-2-heptanamidopropanoyl)oxy)propane-1,2-diyl diheptanoate]
Bioavailability (comparison of doses) [1]: enhanced bioavailability with low dose | Clinical signs of toxicity [2]: No clinical signs of toxicity were observed
